The source of these data is patent US7321027B2, “Small technetium-99m and rhenium labeled agents and methods for imaging tumors” (President and Fellows of Harvard College, priority 2000, dated 2008).

Structures are written as SMILES.

This assay concerns B16/F0 cells. Put plainly: Tumor-cell uptake in the presence of DTG. The assay is classed as cell-based, murine. The following applies: DTG 90 μM, 30 min prior, 37° C. The source says:
J. Labelled Compd. Radiopharm. 1994, 35, 242-244; Vilner, B. J.; John, C. S.; Bowen, W. D. Sigma-I and Sigma-2 Receptors Are Expressed in a Wide Variety of Human and Rodent Tumor Cell Lines. Cancer Res. 1995, 55, 408-413; and John, C. S.; Vilner, B. J.; Gulden, M. E.; Efange, S. M. N.; Langason, R. B.; Moody, T. W.; Bowen, W. D. Synthesis and Pharmacological Characterization of 4-[^125I]-N-(N-Benzylpiperidin-4-yl)-4-iodobenzamide: A High Affinity σ Receptor Ligand for Potential Imaging of Breast Cancer. […] Pre-incubation of the tumor cells with DTG (90 μM), 30 min prior to the uptake experiments with the ^99mTc-complexes, yields a lower tumor-cell uptake for complexes Tc-(Compound A) (29% less), Tc-(Compound C) (33% less), and Tc-(Compound D) (32% less) at 37° C. (FIG. 4). Additional dose-response experiments conducted with intact B16/F0 cells at 37° C. with Tc-(Compound C) and DTG as the inhibitor (FIG. 3) show a DTG concentration-dependent decrease in the uptake of the complex.
The effect of the inhibitor DTG on cell uptake of these complexes was studied by addition of the inhibitor at various concentrations to the cell suspension 30 min prior to addition of the ^99mTc-complexes. Fresh DTG stock solutions were made by dissolving DTG (3.0 mg, 12.5 μmol) in 0.38 mL PBS and 0.12 mL hydrochloric acid (0.1 N) and subjecting the mixture to ultrasound until a clear solution was obtained, followed by the addition of 0.50 mL FBS to produce a neutral solution at pH 7.4. The stock solutions were diluted by an appropriate amount of S-MEM, and aliquots between 5 μL and 25 μL were added to the cell suspension such that the final concentration of DTG was between 0.02 μM and 120 μM in a total cell suspension volume of 350 μL.

With `CCN(CC)CCN1CC[S][99Tc]2(=[O])[S]CC[N]2C(=O)C1` (stereo not shown) [Tc-(Compound A)], the “lower tumor-cell uptake after pre-incubation with DTG” value was found to be 29%.
